The target in experiment [1] is T1, Leucine--tRNA ligase (Mycobacterium tuberculosis (strain ATCC 25618 / H37Rv)) (UniProt P9WFV1).
T1 sequence (whole entry): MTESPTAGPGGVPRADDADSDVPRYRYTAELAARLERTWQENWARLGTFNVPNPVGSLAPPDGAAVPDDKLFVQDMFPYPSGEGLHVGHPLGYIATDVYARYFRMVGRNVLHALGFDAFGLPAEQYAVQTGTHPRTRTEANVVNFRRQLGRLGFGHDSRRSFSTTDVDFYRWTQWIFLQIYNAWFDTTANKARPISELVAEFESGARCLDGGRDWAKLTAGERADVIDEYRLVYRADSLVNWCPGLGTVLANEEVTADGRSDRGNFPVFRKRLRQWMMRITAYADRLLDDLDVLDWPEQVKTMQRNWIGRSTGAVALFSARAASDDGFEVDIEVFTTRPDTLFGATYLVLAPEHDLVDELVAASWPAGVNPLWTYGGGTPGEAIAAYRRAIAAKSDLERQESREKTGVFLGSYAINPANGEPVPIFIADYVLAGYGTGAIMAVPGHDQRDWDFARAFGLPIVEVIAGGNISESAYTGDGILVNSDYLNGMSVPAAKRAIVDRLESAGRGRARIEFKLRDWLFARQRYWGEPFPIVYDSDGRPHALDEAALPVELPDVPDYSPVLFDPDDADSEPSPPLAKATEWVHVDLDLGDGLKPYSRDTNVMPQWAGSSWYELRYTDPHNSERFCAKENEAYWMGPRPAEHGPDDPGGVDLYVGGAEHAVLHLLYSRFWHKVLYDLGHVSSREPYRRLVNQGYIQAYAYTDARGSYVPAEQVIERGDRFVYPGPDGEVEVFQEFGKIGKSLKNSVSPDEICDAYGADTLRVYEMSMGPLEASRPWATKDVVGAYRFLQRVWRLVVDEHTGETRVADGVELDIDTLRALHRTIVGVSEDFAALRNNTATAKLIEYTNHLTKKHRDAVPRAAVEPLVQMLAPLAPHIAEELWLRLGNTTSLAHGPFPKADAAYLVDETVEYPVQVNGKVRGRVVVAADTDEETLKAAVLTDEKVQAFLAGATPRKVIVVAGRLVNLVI
Description: Inhibition of Mycobacterium tuberculosis LeuRS expressed in Escherichia coli Rosetta (DE3) cells at 100 uM incubated for 30 mins followed by incubation with ATP, leucine, tRNA, iPPase for 10 mins and measured after 30 mins by BIOMOL Green reagent based plate reader analysis relative to control.

Experiment [2] relates to Mycobacterium tuberculosis H37Rv. Description: Inhibition of recombinant Mycobacterium tuberculosis H37Rv C-terminal His6-tagged MetRS expressed in Escherichia coli BL21 (DE3) Star cells at 100 uM incubated for 30 mins followed by incubation with ATP, methionine, tRNA, iPPase for 10 mins and measured after 30 mins by BIOMOL Green reagent based plate reader analysis relative to control.

The subject of another experiment is Saccharomyces cerevisiae. In words: Inhibition of yeast inorganic pyrophosphatase assessed as inhibition of BIOMOL-Green signal using inorganic pyrophosphate as substrate at 50 uM incubated for 10 mins in MtbMetRS reaction buffer and measured after 30 mins by BIOMOL-Green reagent based plate reader analysis.
A short description of experiment [3]: Inhibition of BIOMOL-Green signal at 50 uM in MtbMetRS reaction buffer in presence of 10 uM phosphate standard measured after 30 mins by plate reader analysis.
A further experiment deals with T2, Leucine--tRNA ligase (Mycobacterium tuberculosis (strain ATCC 25618 / H37Rv), UniProt P9WFV1).
T2 sequence (P9WFV1 whole entry): T1 sequence (whole entry)
In words: Inhibition of Mycobacterium tuberculosis LeuRS expressed in Escherichia coli Rosetta (DE3) cells incubated for 30 mins followed by incubation with ATP, leucine, tRNA, iPPase for 10 mins and measured after 30 mins by BIOMOL Green reagent based plate reader analysis.

The nature of experiment [4]: Inhibition of recombinant Mycobacterium tuberculosis H37Rv C-terminal His6-tagged MetRS expressed in Escherichia coli BL21 (DE3) Star cells incubated for 30 mins followed by incubation with ATP, methionine, tRNA, iPPase for 10 mins and measured after 30 mins by BIOMOL Green reagent based plate reader analysis.
Experiment [5] concerns Mycobacterium tuberculosis. Format: functional. As to conditions: H37Rv ATCC 27294, 168 h.
The test system of experiment [6] is Mycobacterium tuberculosis. Format: functional. As to conditions: H37Rv ATCC 27294, 336 h.
Experiment [7] has as its system Mycobacterium tuberculosis. Format: functional. As to conditions: H37Rv ATCC 27294, 168 h. This is another data set of the same source.
Experiment [8] concerns Mycobacterium tuberculosis. The format is functional. As to conditions: H37Rv ATCC 27294, 336 h. This is another data set of the same source.
Experiment [9] concerns Mycobacterium tuberculosis. Format: functional. As to conditions: H37Rv ATCC 27294, 168 h. The source holds these as a separate data set.
The test system of experiment [10] is Mycobacterium tuberculosis. The format is functional. As to conditions: H37Rv ATCC 27294, 336 h. The source holds these as a separate data set.
Experiment [11] deals with Mycobacterium tuberculosis. Format: functional. As to conditions: H37Rv ATCC 27294, 168 h. This is another data set of the same source.
Experiment [12] has as its system Mycobacterium tuberculosis. Format: functional. As to conditions: H37Rv ATCC 27294, 336 h. This is another data set of the same source.

For 39 molecules, inhibition, IC50 and MIC results are on record in ChEMBL document CHEMBL4373683, “Dual-target inhibitors of mycobacterial aminoacyl-tRNA synthetases among N-benzylidene-N'-thiazol-2-yl-hydrazines” (Medchemcomm, 2019).

Structures are written as SMILES. Converted amounts (≈) assume the structure as drawn.

As a reminder, the inhibition is the relative decrease from the control value, in per cent. `COC(=O)c1sc(N/N=C/c2ccc(Br)cc2)nc1C`: the inhibition was 46% in experiment [1], 88% in experiment [2], under 35% in the experiment with Saccharomyces cerevisiae and under 35% in [3].

For the molecule `CCOC(=O)Cc1csc(N/N=C/c2ccc(C(=O)O)cc2)n1`, the results for the inhibition in [1] and in [2] were 12% and 22%, respectively.

In the case of `Cc1csc(N/N=C/c2cc(Br)ccc2O)n1`, the inhibition in [1] stood at 39%; in [2], 113%.

With `CCOC(=O)c1sc(N/N=C/c2ccc(C(=O)O)cc2)nc1C`, the inhibition is -7% in [1] and 6% in experiment [2].

As to `COC(=O)c1sc(N/N=C/c2ccc([N+](=O)[O-])cc2)nc1C`, the inhibition in [1] worked out at 88%; in [2], 75%.

With `CCOC(=O)c1sc(N/N=C/c2ccccc2)nc1C`, the inhibition in experiment [1] was determined as 19%; in experiment [2] it was 73%.

Broadly, the IC50 is the concentration needed to halve the response being measured. Take `Cc1csc(N/N=C/c2ccccc2Br)n1`: the figures for the half-inhibitory concentration (IC50) (on Leucine--tRNA ligase; in experiment [4] (read-out: IC50)) were 38.4 µM and 123 µM, respectively.

`CCOC(=O)c1sc(N/N=C/c2cc(Br)c(O)c(Br)c2)nc1C`: the inhibition in [1] turned out to be 55%; in experiment [2], 51%.

As for `Cc1csc(N/N=C/c2ccc(C(=O)O)cc2)n1`, the inhibition in [1] is -4%.

Take `CCOC(=O)c1sc(N/N=C/c2cccc(O)c2)nc1C`: the inhibition in experiment [1] is 1%; in experiment [2], 71%.

The term MIC denotes the smallest concentration in the dilution series that meets the test's criterion for growth inhibition. Read a high MIC as weaker potency. Regarding `O=C(O)c1ccc(/C=N/Nc2nc(-c3ccc(Cl)cc3Cl)cs2)cc1`, the inhibition in experiment [1] stood at 101%; in [2], 92%. The half-maximal inhibitory concentration (IC50) against Leucine--tRNA ligase amounted to 27.3 µM; in experiment [4] (read-out: IC50) it was 22.7 µM. The minimum inhibitory concentration (MIC) in [5], in [6], in experiment [7], in [8], in experiment [9] and in experiment [10] was over 50 µM in each case. Also, the minimum inhibitory concentration (MIC) in experiment [11] and in [12] was over 50 µM each time.

With `CCOC(=O)c1sc(N/N=C/c2cc(Br)c(O)c(OC)c2)nc1C`, the results for the inhibition in [1] and in experiment [2] were 54% and 94%, respectively.

Turning to `COc1cc(/C=N/Nc2nccs2)cc(Br)c1OCc1ccccc1`, the inhibition in experiment [1] was 55%; in experiment [2], 106%; in the experiment on Saccharomyces cerevisiae, under 35%; in [3], under 35%.

Take `COc1cccc(/C=N/Nc2nc(C)cs2)c1OC`: the results for the inhibition in experiment [1] and in [2] were 17% and 25%, respectively.

With `CCc1ccc(/C=N/Nc2nc(-c3cccc([N+](=O)[O-])c3)cs2)cc1`, the inhibition in [1] was 3%; in [2] it was 27%.

For `O=[N+]([O-])c1cccc(-c2csc(N/N=C/c3ccccc3Br)n2)c1`, the values for the inhibition in experiment [1] and in experiment [2] were 80% and 93%, respectively. For the same molecule, the IC50 amounted to 8.9 µM against Leucine--tRNA ligase and 6.5 µM in experiment [4] (read-out: IC50). Besides, the MIC in experiment [5] was over 50 µM; in experiment [6], over 50 µM; in [7] it was at least 50 µM; in [8], over 50 µM; in experiment [9], 37 µM (≈ 14.9 µg/mL); in experiment [10], over 50 µM. Moreover, the MIC in experiment [11] worked out at 37 µM (≈ 14.9 µg/mL); in experiment [12], 50 µM (≈ 20.2 µg/mL).

In the case of `COc1cc(/C=N/Nc2nc(C)c(C(C)=O)s2)ccc1OCc1ccccc1Cl`, the inhibition was 87% in experiment [1], 113% in experiment [2], under 35% with Saccharomyces cerevisiae and under 35% in [3].

Turning to `CCCCCCOc1ccc(/C=N/Nc2nccs2)cc1OC`, the inhibition in experiment [1] was determined as 47%; in [2] it was 62%.

Regarding `COc1cc(/C=N/Nc2nc(-c3ccc(Br)cc3)cs2)cc([N+](=O)[O-])c1O`, the inhibition is 113% in [1], 110% in experiment [2], under 35% in the experiment on Saccharomyces cerevisiae and under 35% in [3].

In the case of `O=[N+]([O-])c1cc(/C=N/Nc2nc(-c3ccccc3)cs2)ccc1O`, the inhibition is 53% in [1], 72% in experiment [2], under 35% with Saccharomyces cerevisiae and under 35% in experiment [3].

In the case of `CCOC(=O)c1sc(N/N=C/c2ccc(Br)cc2)nc1C`, the inhibition is 39% in [1], 111% in experiment [2], under 35% in the experiment with Saccharomyces cerevisiae and under 35% in experiment [3].

With `CCOc1ccc(/C=N/Nc2nc(C)c(C(C)=O)s2)cc1`, the inhibition in [1] was 20%; in experiment [2], 53%.

`CCOC(=O)c1sc(N/N=C/c2ccccc2C(F)(F)F)nc1C`: the results for the inhibition in experiment [1] and in experiment [2] were 34% and 45%, respectively.

Turning to `COc1ccc(/C=N/Nc2nc(C)cs2)cc1Br`, the figures for the half-inhibitory concentration (IC50) (at Leucine--tRNA ligase; in experiment [4]) were 95 µM and “Not Active”, respectively.

With `O=[N+]([O-])c1cccc(-c2csc(N/N=C/c3cccc(Oc4ccccc4)c3)n2)c1`, the inhibition amounted to 11% in experiment [1] and 65% in experiment [2].

Consider `Oc1ccccc1/C=N/Nc1nc(-c2ccccc2)cs1`, for which the inhibition in [1] stood at 7%; in experiment [2] it was 51%.

For `COc1ccc(OC)c(/C=N/Nc2nc(-c3cccnc3)cs2)c1`, the inhibition was determined as 74% in [1] and 115% in experiment [2].

With `COc1ccc(/C=N/Nc2nccs2)cc1Br`, the inhibition came out at 29% in experiment [1] and 90% in experiment [2].

Take `NNC(=O)c1ccncc1` [ISONIAZID]: the minimal inhibitory concentration (MIC) in experiment [5] stood at 0.1 µM (≈ 0.0137 µg/mL); in [6], 0.3 µM (≈ 0.0411 µg/mL); in [7], 0.6 µM (≈ 0.0823 µg/mL); in experiment [8] it was 0.6 µM (≈ 0.0823 µg/mL); in experiment [9], 0.07 µM (≈ 0.0096 µg/mL); in [10], 0.1 µM (≈ 0.0137 µg/mL). Further, the MIC in [11] and in experiment [12] was 0.39 µM (≈ 0.0535 µg/mL) each time.

`Cc1sc(N/N=C/c2cccc(O)c2)nc1-c1ccccc1`: the inhibition in experiment [1] is 65%; in experiment [2] it was 112%; in the experiment with Saccharomyces cerevisiae, under 35%; in experiment [3], under 35%.

Take `CN(C)c1ccc(/C=N/Nc2nc(-c3ccccc3)cs2)cc1`: the inhibition in experiment [1] was 65%; in [2] it was 123%; in the experiment on Saccharomyces cerevisiae, under 35%; in experiment [3] it was under 35%.

Turning to `CCOC(=O)c1sc(N/N=C/c2ccccc2Br)nc1C`, the inhibition was 67% in [1] and 99% in [2].

In the case of `COc1cc(/C=N/Nc2nccs2)ccc1OC(=O)c1ccc(Cl)cc1Cl`, the inhibition in experiment [1] was 73%; in [2], 142%; in the experiment with Saccharomyces cerevisiae it was under 35%; in [3] it was under 35%.

As for `Brc1ccccc1/C=N/Nc1nc(-c2ccccc2)cs1`, the values for the 50% inhibitory concentration (IC50) (against Leucine--tRNA ligase; in experiment [4] (read-out: IC50)) were 24.1 µM and 37.5 µM, respectively.

Regarding `Cc1csc(N/N=C/c2ccc([N+](=O)[O-])cc2)n1`, the values for the inhibition in [1] and in experiment [2] were 20% and 92%, respectively.

With `COc1ccc(/C=N/Nc2nc(C)c(C)s2)cc1`, the inhibition in [1] and in [2] was 1% throughout.

In the case of `COc1cc(/C=N/Nc2nccs2)ccc1OCc1ccccc1Cl`, the inhibition is 64% in [1], 102% in [2], under 35% in the experiment on Saccharomyces cerevisiae and under 35% in [3].

In the case of `COC(=O)c1sc(N/N=C/c2ccc(C(=O)O)cc2)nc1C`, the inhibition in [1] stood at 12%.

Consider `O=[N+]([O-])c1ccccc1/C=N/Nc1nccs1`, for which the results for the inhibition in experiment [1] and in experiment [2] were 45% and 51%, respectively.
